The record followed here is ChEMBL document CHEMBL5096191 (J Med Chem, 2021).

Type in all cases: functional, cell-based
In assay [1] the target is T1, Cannabinoid receptor 2 (Homo sapiens, UniProt P34972). As to the kind of experiment: Partial agonist activity at wild type CB2 receptor (unknown origin) stably expressed in HEK293T assessed as decrease in forskolin induced cAMP level preincubated for 15 mins followed by forskolin addition incubated for 15 mins in presence of cannabidiol by HTRF assay. (In general: Changes in cAMP serve as a functional read-out for many G protein-coupled receptors.)
T1 sequence (P34972 whole entry): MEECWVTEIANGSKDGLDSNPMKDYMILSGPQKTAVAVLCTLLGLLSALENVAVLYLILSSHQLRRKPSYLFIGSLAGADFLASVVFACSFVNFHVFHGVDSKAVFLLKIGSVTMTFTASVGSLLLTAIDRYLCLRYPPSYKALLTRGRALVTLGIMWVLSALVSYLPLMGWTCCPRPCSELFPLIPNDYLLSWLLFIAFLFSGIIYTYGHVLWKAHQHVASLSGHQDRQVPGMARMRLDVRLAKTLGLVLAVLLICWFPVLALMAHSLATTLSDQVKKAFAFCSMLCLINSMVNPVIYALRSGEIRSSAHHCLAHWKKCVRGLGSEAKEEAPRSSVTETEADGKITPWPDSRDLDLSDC

Assay [2] relates to Cannabinoid receptor 2 (Homo sapiens), P34972 [V36M]. As to the kind of experiment: Partial agonist activity at CBR2 V361.35M mutant (unknown origin) stably expressed in HEK293T assessed as decrease in forskolin induced cAMP level preincubated for 15 mins followed by forskolin addition incubated for 15 mins in presence of cannabidiol by HTRF assay relative to control. Particulars: filed as partial agonist, time 30.0 min.
Chain of Cannabinoid receptor 2 (Homo sapiens), P34972 [V36M] (P34972 whole entry V36M): as the sequence (P34972 whole entry) above, with V36M counted along it

The test system of assay [3] is Cannabinoid receptor 2 (Homo sapiens), P34972 [S285L]. The assay is described as follows: Partial agonist activity at CBR2 S2857.39L mutant (unknown origin) stably expressed in HEK293T assessed as decrease in forskolin induced cAMP level preincubated for 15 mins followed by forskolin addition incubated for 15 mins in presence of cannabidiol by HTRF assay relative to control. The following applies: filed as partial agonist, time 30.0 min.
Chain of Cannabinoid receptor 2 (Homo sapiens), P34972 [S285L] (P34972 whole entry S285L): as the sequence (P34972 whole entry) above, with S285L counted along it

For assay [4], the target named is T1, Cannabinoid receptor 2. The assay is described as follows: Partial agonist activity at wild type CB2 receptor (unknown origin) expressed in HEK293T assessed as increase in ERK1/2 phosphorylation incubated for 7 mins by AlphaScreenSureFire method relative to control. The following applies: filed as partial agonist.
The test system of assay [5] is Cannabinoid receptor 2 (Homo sapiens), P34972 [V113M]. As to the kind of experiment: Partial agonist activity at CBR2 V1133.32M mutant (unknown origin) expressed in HEK293T assessed as increase in picometer shifts of reflected light wavelengths in presence of cannabidiol by DMR assay relative to control. The following applies: filed as partial agonist.
Chain of Cannabinoid receptor 2 (Homo sapiens), P34972 [V113M] (P34972 whole entry V113M): as the sequence (P34972 whole entry) above, with V113M counted along it
Assay [6] has as its system Cannabinoid receptor 2 (Homo sapiens), P34972 [A282M]. As to the kind of experiment: Partial agonist activity at CBR2 A2827.36M mutant (unknown origin) expressed in HEK293T assessed as increase in picometer shifts of reflected light wavelengths by DMR assay relative to control. The following applies: filed as partial agonist.

Chain of Cannabinoid receptor 2 (Homo sapiens), P34972 [A282M] (P34972 whole entry A282M): as the sequence (P34972 whole entry) above, with A282M counted along it

One may read the EC50 as the concentration that produces a half-maximal response. As a reminder, the Emax is the maximal effect, on the per cent scale that the assay sets. `CCCC(C)(C)c1cc(O)c2c(c1)OC(C)(C)[C@@H]1CC=C(C)C[C@@H]21`: the EC50 at Cannabinoid receptor 2 [1] was 50.1 nM. In addition, the Emax in assay [2] was 53%; in assay [3], 57.4%; on Cannabinoid receptor 2 [4], 322%; in assay [5], 71.9%; in assay [6], 199%.
